Here are results for two compounds from US9700637B2, “Reaction-based fluorescent probes for detecting zinc” (Massachusetts Institute of Technology, priority 2013, dated 2017).

The nature of data set [1]: pH profile of fluorescence. The format is physicochemical. As for the experimental part:
FIG. 21 depicts normalized fluorescence signals for DA-ZP1-TPP as a function of increasing pH in the presence of 125 μM ZnCl2 or 250 μM EDTA. Data were acquired 17.5 mM (0.1% v/v) acetic acid in milli-Q H2O beginning at pH 3.5. The pH of the solution was increased by sequential addition of aqueous KOH. The total volume of KOH added was less than 5% of the total volume. λex=475 nm.
FIG. 26 depicts in vitro characterization of DA-ZP1-A3. (a) UV-vis and (b) fluorescence spectra of a 5 μM solution of DA-ZP1-A3 in buffer (50 mM PIPES, 100 mM KCl; pH 7). Spectra were acquired initially, upon addition of 100 μM ZnCl2, and again after addition of 200 μM EDTA. (c) Time-dependent change in the normalized absorbance of a ca. 5 μM solution DA-ZP1-A3 at 37° C. in buffer (50 mM PIPES, 100 mM KCl; pH 7) in the presence of 100 μM ZnCl2 (λabs=510 nm) or EDTA (λabs=520 nm). (d) Integrated fluorescence intensity of a 1 μM solution of ZP1-A3 (circles) or DA-ZP1-A3 (squares) as a function of pH.
Next, we investigated the pH profile of DA-ZP1-TPP. The use of nitrogen atoms to coordinate zinc endows Zinpyr sensors with selectivity for zinc over calcium and magnesium, but also renders them pH sensitive. […] Protonation of these amines leads to increased background fluorescence because protons can diminish PeT in a manner similar to that of zinc ions. […]

Data set [2] in a line: Metal ion selectivity of fluorescence response. The following applies: 50 mM PIPES pH 7, 100 mM KCl, 25° C. The format is physicochemical. As for the experimental part: FIG. 22 depicts metal ion selectivity of DA-ZP1-TPP. Average normalized fluorescence intensities for a 1.1 μM solution of DA-ZP1-TPP in 50 mM PIPES buffer (pH 7) with 100 mM KCl at 25° C., after addition of 50 μM-2 mM concentrations of various metal ions (white bars), followed by addition of 50 μM ZnCl2 (black bars). The grey column represents the average sensor intensity after addition of 100 μM EDTA. Data were normalized to initial measured emission intensity at λex=495 nm.
DA-ZP1-TPP has a zinc-induced fluorescence response and is relatively stable to uncatalyzed hydrolysis and esterase activity. […] Other late 3d-block transition metal ions, such as Co(II) and Cu(II), can coordinate to DA-ZP1-TPP but are generally not available in appreciable chelatable quantities within the cell. In addition to monitoring selectivity in the fluorescence response, we used UV-vis spectroscopy to investigate the rate and zinc-specificity of metal-mediated ester hydrolysis. […] By monitoring the absorbance of the xanthene it system, we could interrogate deacetylation kinetics in a manner that is independent of the fluorescence response. […] To determine whether ester hydrolysis depends on the metal-binding core of DA-ZP1-TPP, we measured the deacetylation kinetics of fluorescein diacetate (DA-FL) under analogous conditions. […]

Data set [3] relates to RWPE-1 cells. In words: Mitochondrial zinc uptake imaging in prostate cells. The class given is cell-based. The following applies: RWPE-1, 50 μM ZnCl2 KSFM, 24 h. As for the experimental part: (§1) FIG. 25 depicts decreased mitochondrial zinc uptake in cancerous cell lines. RWPE-1, RWPE-2, and PC-3 prostate cell lines were incubated for 24 h in medium supplemented with (+) and without (−) 50 μM ZnCl2. RWPE-1 is the only cell line that has a statistically significant (p<0.001) increase in mitochondrial zinc uptake when incubated in zinc-enriched media.
(§2) With a new mitochondrial-targeting sensor in hand, we used DA-ZP1-TPP to investigate the ability of prostate cell lines to accumulate zinc within their mitochondria. RWPE-1 and RWPE-2 are a pair of genetically similar cell lines that retain normal epithelial cell morphology, express cytokeratin markers for prostate epithelial cells, and are hormone sensitive. […] To explore the ability of RWPE-1 and -2 cells to sequester zinc in mitochondria, we measured the fluorescence intensity of DA-ZP1-TPP in both lines after the cells were bathed in normal or zinc-enriched (50 μM ZnCl2) keratinocyte serum-free medium (KSFM) for 24 h prior to imaging. RWPE-1 cells bathed in zinc-enriched medium have a fluorescence signal intensity that is ˜2.3-fold higher than cells bathed in normal medium (FIG. 25). […] Importantly, in both cell lines the observed fluorescence signals from DA-ZP1-TPP are sensitive to ZnPT and TPEN and have good correlation with MitoTracker Red, the Pearson's r values being 0.68±0.09 and 0.59±0.1 for RWPE-1 and -2, respectively. […]

The subject of data set [4] is RWPE-2 cells. The data set is described as above. The class given is cell-based. As to conditions: RWPE-2, 50 μM ZnCl2 KSFM, 24 h. On the procedure:
as §1, §2

The conditions of data set [5]: cited from earlier work.

A value given as a limit tells only on which side of the number the result lay.

Regarding `CC(=O)Oc1c(Cl)cc2c(c1CN(Cc1ccccn1)Cc1ccccn1)Oc1c(cc(Cl)c(OC(C)=O)c1CN(Cc1ccccn1)Cc1ccccn1)C21OC(=O)c2ccc(C(=O)NCC[P+](c3ccccc3)(c3ccccc3)c3ccccc3)cc21` [DA-ZP1-TPP], the “fluorescence turn-on under acidic conditions” value in data set [1] (absence of zinc) is “no significant fluorescence turn-on under acidic conditions”. Further, the “pH at which a strong zinc-dependent fluorescence response is displayed” value in data set [1] (presence of excess zinc ions (125 μM ZnCl2)) is more than 5. For the same compound, in data set [2], the “metal ion selectivity of fluorescence response” value was “responds to Zn(II) over biologically relevant cations such as Ca(II) and Mg(II)”. In data set [3], the “fluorescence signal intensity, zinc-enriched vs normal medium” value was approximately 2.3 fold. Also, the “increase in fluorescence signal, zinc-enriched vs normal medium” value in data set [4] is listed as “no statistically significant increase”.

Take `O=C(NCC[P+](c1ccccc1)(c1ccccc1)c1ccccc1)c1ccc2c(c1)C1(OC2=O)c2cc(Cl)c(O)c(CN(Cc3ccccn3)Cc3ccccn3)c2Oc2c1cc(Cl)c(O)c2CN(Cc1ccccn1)Cc1ccccn1` [ZP1-TPP]: the “pKa of tertiary nitrogen atoms on the DPA units” value in data set [5] is 6.96.
